Test results as given in US20180326022A1, “COMPOSITIONS AND METHODS FOR IMPROVING HEART FUNCTION AND TREATING HEART FAILURE” (The Trustees of the University of Pennsylvania, priority 2017, published 2018).

Assays:
Type in all cases: cell-based
[1] = system: detyrosinated tubulin; experiment: Western blotting of cardiomyocyte lysates (TTL, α-, detyr-, tyr-tubulin); details: rat cardiomyocytes; PTL treatment; shTTL; short term EpoY
Protocol: (§1) Viral constructs were permitted to express for 24-72 hours with Moi=100-200. Parthenolide (Fisher Scientific NC9013142) treatment was carried out at room temperature for 2 hours at 10 μM. All experiments were performed within 48 hours of isolation, except those involving shTTL, which were allowed 72 hours to improve knockdown efficiency.
For analysis of proteins expression levels quantitative Western blots were performed using infrared fluorescence imaging on an Odyssey Imager (LI-COR). Cell homogenates were prepared in ice-cold IGEPAL lysis buffer. After 1 freezing cycle lysates were spun at 18,000×g for 5 min. Aliquots of supernatants were mixed with 4× sample buffer (LI-COR, 928-40004) containing 10% BME, boiled for 6 min., and resolved on sodium dodecyl sulfate (SDS)-polyacrylamide gel electrophoresis Tris-glycine gels (Bio-Rad). Proteins were transferred to a membrane on Mini Trans-Blot Cell (Bio-Rad), blocked 1 h in Odyssey Blocking Buffer (TBS) (LI-COR, 927-50000), and probed with the corresponding primary antibody (see list below) for 2 h at room temperature. Membranes were then rinsed with TBST 4 times for 5 min, and incubated with secondary antibodies (below) for 1.5 h at room temperature. Membranes were rinsed again with TBST and then imaged on Odyssey Imager. Image analysis was performed using Image Studio Lite software (LI-COR). Fluorescent band intensity was always normalized to GAPDH loading control. Analysis of human tissue samples for levels of detyrosinated tubulin was performed blinded to the experimental groups.

[2] = system: primary adult rat cardiomyocytes; experiment: Cell contractility (sarcomere shortening, 1 Hz pacing); details: rat cardiomyocytes, 1 Hz; PTL 10 μM 2 hours
Protocol: as §1
Experiments were performed in custom-fabricated cell chambers (Ionoptix) mounted on an LSM Zeiss 780 inverted confocal microscope using a 40× oil 1.4 NA objective and transmitted light camera (IonOptix MyoCam-S). For contractility assays, cells were maintained in NT solution and electrical field stimulation was provided at 1 Hz with a myopacer (IonOptix MYP100) through platinum electrodes lowered into the bath. Sarcomere length was measured optically by Fourier transform analysis (IonWizard, IonOptix). After 15 s of 1 Hz pacing to achieve steady state, five traces were recorded and analyzed.

[3] = system: desmin KO myocytes; experiment: AFM viscoelasticity, desmin KO mouse myocytes; details: KO + PTL
Protocol: (§2) Animal care and procedures were approved and performed in accordance with the standards set forth by the University of Pennsylvania Institutional Animal Care and Use Committee and the Guide for the Care and Use of Laboratory Animals published by the US National Institutes of Health. Desmin knockout mice and WT littermates were provided by Dr. Robert Bloch and have been previously characterized (36). Experiments were performed blinded to genotype.
as §1
(§3) The elastic modulus of isolated cardiomyocytes was measured using AFM indentation. Optical microscopy and AFM were performed simultaneously using an MFP3D AFM (Asylum Research) combined with an inverted Nikon TE-2000U microscope equipped with a Nikon 100×, 1.49 NA objective. TTL expression was determined by dsRED fluorescence captured via 532 nm laser excitation (CrystaLaser) and a CCD camera (Cascade-512B, Photometrics) at 900 ms exposure time controlled through the NIS Elements software package. […] Modulus characterization of myocytes was performed using 4.26 μm radius (R below) SiO2 microparticle epoxied to SiN cantilevers with nominal spring constant 0.03 N/m (CP-PNPS-SiO-A, Nano And More, USA). Cantilever spring constants were manually calibrated in air by thermal vibrations using the MFP3D prior to each experiment using a clean glass substrate. Inverse optical lever sensitivity was determined in myocyte buffer solution prior to each round of measurements.
(§4) E is the elastic modulus, υ, is the cell Poisson ratio and δ is the indentation depth. Transverse compression of the cardiomyocyte is performed over a range of indentation speeds and the indentation speed is divided by the total indentation depth to obtain an effective indentation rate, f. […]

[4] = system: WT myocytes; experiment: AFM viscoelasticity, WT mouse myocytes; details: WT + PTL
Protocol: as §2, §1, §3, §4

[5] = system: human myocytes; experiment: Cell contractility of human myocytes (0.5 Hz)
Protocol: Viable myocytes were concentrated by gravity (5-7 min) and supernatant was aspirated to remove dead cells. Myocytes were resuspended in NT solution containing 1 mM Ca^2+ and concentrated by gravity (5-7 min) again. Cardiomyocytes used acutely were maintained in NT solution for up to 6 hours. Myocytes were treated with 10 μM parthenolide (Fisher Scientific NC9013142 or Sigma P0667) or 10 μM colchicine (Sigma) at room temperature in NT solution for 2 hours. Experiments were performed within 6 hours of isolation, except for those involving viral transduction in cultured cells.
MatTek glass bottom dish was coated 5 μl of 0.5 mg/ml laminin and air dried for 10 min. Culture medium was F-10 (1×) Nutrient Mixture (Ham) [+] L-Glutamine (Life Technologies, 11550-043) supplemented with insulin-transferrin selenium-X (Gibco, 51500-056), 20 mM HEPES, 1 μg/μl primocin (Invivogen, ant-pm-1), 0.4 mM extra CaCl2, 5% FBS, 25 μM cytochalasin D (Cayman, 11330). Viable myocytes were concentrated and a proper amount of medium was added in culture so that neighboring cells were not in direct contact. Viral constructs were permitted to express for 48 hours with Moi=100-200. Adenoviral TTL-IRES-dsRed and EMTB-3x GFP were transduced in human myocytes as previously performed in rat myocytes. Myocytes were replenished with fresh warm medium without cytochalasin D before calcium and contractility measurements.
Experiments were performed as described in Example 1 with some modification. Contractility is measured in custom-fabricated cell chambers (Ionoptix) mounted on an LSM Zeiss 880 inverted confocal microscope using a 40× oil 1.4 NA objective and transmitted light camera (IonOptix MyoCam-S). Myoyctes were maintained in NT solution (for freshly isolated myocytes) or culture medium (without cytochalasin D, for cultured myocytes) at room temperature and electrical field stimulation was provided at 0.5 Hz with a myopacer (IonOptix MYP100) through platinum electrodes lowered into the bath. Sarcomere length was measured optically by Fourier transform analysis (IonWizard, IonOptix). After 10-30 s of 0.5 Hz pacing to achieve steady state, five traces were recorded and analyzed. If not specified, contractility data was obtained at room temperature.
To test whether the contractile improvement over MT destabilization remains under more physiological conditions, both 0.5 Hz and 1 Hz contractions at 37 C were recorded and analyzed in a small subset of isolated human myocytes (1 NF and 1 failing heart, FIG. 29C).

C=C1C(=O)O[C@H]2[C@H]1CC/C(C)=C/CC[C@@]1(C)O[C@@H]21 [PTL, 4,5-epoxygermacra-1(10),11(13)-dien-12,6-olactone]
alpha / total tubulin levels (western blot) [1]: no significant change
detyrosinated tubulin (western blot) [1]: significant drop
Resting SL (μm) [2]: 1.803 μm
Vmax (μm/s) [2]: −5.35 μm/s
Vmin (μm/s) [2]: 4.28 μm/s
ΔSL (μm) [2]: 0.201 μm
E1 (Pa) [3]: 429.76 Pa
E2 (Pa) [3]: 512.2 Pa
η (Pa*s) [3]: 27.4 Pa*s
E1 (Pa) [4]: 533.11 Pa
E2 (Pa) [4]: 627.4 Pa
η (Pa*s) [4]: 32.9 Pa*s
late phase of relaxation ([5]; NF human myocytes, 10 μM PTL): slightly prolonging
restoration of lost function (contractile velocities vs NF benchmark) ([5]; failing human myocytes): ~50%
shortening amplitude and velocity, speed of relaxation ([5]; failing human myocytes, 10 μM, 2 hours): robustly improved
